Assay results as given in US11052245B2, “Device and method for localized delivery and extraction of material” (Helsingin Yliopisto, priority 2015, dated 2021).

Legend:
[1] = Delivery of phosphotungstic acid into bovine articular cartilage by MHD, imaged with X-ray micro-tomography; format: in vitro ADME; settings: PTA 1% in PBS; MHD for 40 s, graphite electrodes ø=6 mm, 3 mm gap, 400 mA; control immersed 40 s without MHD; XMT of 150 μm slices
From the text: Control: bovine articular cartilage was immersed in 1% PTA (˜2.8 kDa) in phosphate buffered saline (PBS) for 40 s.
Treatment: bovine articular cartilage was immersed in PTA 1% in PBS and exposed to MHD for 40 s. The MHD method applied graphite cylindrical electrodes (ø=6 mm), 3 mm electrode gap, and 400 mA.

[2] = In-vitro delivery of methylene blue into human nails by MHD, photograph; format: in vitro ADME; settings: MB 0.01% in PBS 1%, MHD for 10 minutes, graphite electrodes ø=6 mm, 3 mm gap, 400 mA, control immersed 10 minutes without MHD
Protocol: Control: Fingernail was immersed in a solution of MB (0.01%) in PBS (1%) for 10 minutes.
Treatment; Fingernail was immersed in the MB solution and exposed to MHD during 10 minutes. The MHD method applied graphite cylindrical electrodes (ø=6 mm), 3 mm electrode gap, and 400 mA.
The darkest regions correspond to the largest concentration of MB.

In the case of O=P(O)(O)O.[O]=[W](=[O])=[O].[O]=[W](=[O])=[O].[O]=[W](=[O])=[O].[O]=[W](=[O])=[O].[O]=[W](=[O])=[O].[O]=[W](=[O])=[O].[O]=[W](=[O])=[O].[O]=[W](=[O])=[O].[O]=[W](=[O])=[O].[O]=[W](=[O])=[O].[O]=[W](=[O])=[O].[O]=[W](=[O])=[O] [PTA, phosphotungstic acid], the “Diffusion of PTA into cartilage, treated sample vs control” value [1] is reported as “enhanced diffusion of PTA as compared to the control”.
In the case of CN(C)c1ccc2nc3ccc(=[N+](C)C)cc-3sc2c1 [MB, methylene blue], the “Diffusion of MB into nail, treated sample vs control” value [2] is reported as “stronger than in the control”.
